What was measured:
[1] = target: Myosin light chain kinase 2, skeletal/cardiac muscle (Homo sapiens) (UniProt Q9H1R3); experiment: Selectivity interaction (KinomeScan (DiscoverX)) EUB0000229b MYLK2; conditions: at 10 µM
[2] = target: T1, Uncharacterized serine/threonine-protein kinase SBK3 (Homo sapiens) (UniProt P0C264); experiment: Selectivity interaction (KinomeScan (DiscoverX)) EUB0000695a SBK3; conditions: at 100 nM
T1 sequence (whole entry): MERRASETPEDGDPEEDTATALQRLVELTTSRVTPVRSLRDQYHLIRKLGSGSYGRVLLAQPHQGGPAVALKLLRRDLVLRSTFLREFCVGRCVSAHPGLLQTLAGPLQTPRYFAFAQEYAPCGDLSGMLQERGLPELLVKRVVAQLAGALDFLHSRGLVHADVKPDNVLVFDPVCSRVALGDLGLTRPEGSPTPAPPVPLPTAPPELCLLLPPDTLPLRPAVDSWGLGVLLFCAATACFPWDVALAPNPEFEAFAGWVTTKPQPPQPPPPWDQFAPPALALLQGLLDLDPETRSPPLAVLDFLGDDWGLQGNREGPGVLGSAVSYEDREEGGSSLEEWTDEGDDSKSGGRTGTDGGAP

[3] = target: T2, Serine/threonine-protein kinase ULK1 (Homo sapiens) (UniProt O75385); experiment: Selectivity interaction (KinomeScan (DiscoverX)) EUB0001079a ULK1; conditions: at 1 µM
T2 sequence (whole entry): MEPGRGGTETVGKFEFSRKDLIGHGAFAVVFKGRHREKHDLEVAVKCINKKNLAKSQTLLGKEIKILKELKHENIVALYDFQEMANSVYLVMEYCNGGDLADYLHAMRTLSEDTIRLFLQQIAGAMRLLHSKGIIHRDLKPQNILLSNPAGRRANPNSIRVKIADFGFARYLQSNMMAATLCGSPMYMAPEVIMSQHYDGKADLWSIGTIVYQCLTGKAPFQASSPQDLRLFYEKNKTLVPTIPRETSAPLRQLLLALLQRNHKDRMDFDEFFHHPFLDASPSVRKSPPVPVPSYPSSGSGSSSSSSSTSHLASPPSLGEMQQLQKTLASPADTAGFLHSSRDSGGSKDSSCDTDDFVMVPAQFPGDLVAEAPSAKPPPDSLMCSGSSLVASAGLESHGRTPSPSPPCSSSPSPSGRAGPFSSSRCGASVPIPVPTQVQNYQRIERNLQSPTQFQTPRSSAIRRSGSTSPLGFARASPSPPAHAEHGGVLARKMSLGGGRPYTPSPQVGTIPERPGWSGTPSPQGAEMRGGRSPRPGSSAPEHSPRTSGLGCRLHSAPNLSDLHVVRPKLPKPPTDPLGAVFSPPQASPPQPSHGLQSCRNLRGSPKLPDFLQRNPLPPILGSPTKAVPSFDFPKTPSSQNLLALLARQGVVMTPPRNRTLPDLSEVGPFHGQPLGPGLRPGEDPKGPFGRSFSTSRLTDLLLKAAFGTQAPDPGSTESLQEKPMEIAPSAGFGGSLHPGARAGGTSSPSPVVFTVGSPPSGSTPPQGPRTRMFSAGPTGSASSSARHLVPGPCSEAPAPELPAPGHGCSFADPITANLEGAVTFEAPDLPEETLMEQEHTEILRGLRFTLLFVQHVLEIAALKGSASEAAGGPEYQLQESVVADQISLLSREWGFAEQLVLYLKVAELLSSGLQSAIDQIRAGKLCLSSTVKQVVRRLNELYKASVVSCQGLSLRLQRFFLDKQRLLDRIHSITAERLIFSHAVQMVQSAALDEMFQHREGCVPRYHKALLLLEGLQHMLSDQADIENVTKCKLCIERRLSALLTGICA

[4] = target: T3, Mitogen-activated protein kinase kinase kinase 3 (Homo sapiens) (UniProt Q99759); experiment: Selectivity interaction (LanthaScreen Eu Kinase Binding Assay) EUB0001632a MAP3K3; conditions: at 10 µM
T3 sequence (whole entry): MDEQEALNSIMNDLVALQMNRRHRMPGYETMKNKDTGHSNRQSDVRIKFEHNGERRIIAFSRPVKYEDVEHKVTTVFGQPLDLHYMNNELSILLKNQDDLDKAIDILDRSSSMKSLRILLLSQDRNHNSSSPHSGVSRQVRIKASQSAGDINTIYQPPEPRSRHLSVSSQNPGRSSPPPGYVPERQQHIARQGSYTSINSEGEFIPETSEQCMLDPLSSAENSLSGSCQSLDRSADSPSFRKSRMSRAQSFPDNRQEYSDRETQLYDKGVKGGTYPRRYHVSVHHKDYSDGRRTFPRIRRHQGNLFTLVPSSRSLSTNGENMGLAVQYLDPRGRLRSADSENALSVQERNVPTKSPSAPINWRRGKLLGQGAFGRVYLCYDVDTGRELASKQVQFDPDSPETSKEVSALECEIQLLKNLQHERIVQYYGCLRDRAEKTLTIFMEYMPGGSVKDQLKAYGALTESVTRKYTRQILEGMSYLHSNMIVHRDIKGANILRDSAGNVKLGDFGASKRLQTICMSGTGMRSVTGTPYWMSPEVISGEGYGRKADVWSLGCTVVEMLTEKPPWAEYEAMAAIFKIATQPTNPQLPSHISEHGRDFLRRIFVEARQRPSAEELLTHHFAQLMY

[5] = target: Serine/threonine-protein kinase 38-like (Homo sapiens) (UniProt Q9Y2H1); experiment: Selectivity interaction (Kinase panel (DSF assay)) EUB0001558a STK38L
Serine/threonine-protein kinase 38-like (Homo sapiens), sequence (Q9Y2H1 2-464 limits assumed): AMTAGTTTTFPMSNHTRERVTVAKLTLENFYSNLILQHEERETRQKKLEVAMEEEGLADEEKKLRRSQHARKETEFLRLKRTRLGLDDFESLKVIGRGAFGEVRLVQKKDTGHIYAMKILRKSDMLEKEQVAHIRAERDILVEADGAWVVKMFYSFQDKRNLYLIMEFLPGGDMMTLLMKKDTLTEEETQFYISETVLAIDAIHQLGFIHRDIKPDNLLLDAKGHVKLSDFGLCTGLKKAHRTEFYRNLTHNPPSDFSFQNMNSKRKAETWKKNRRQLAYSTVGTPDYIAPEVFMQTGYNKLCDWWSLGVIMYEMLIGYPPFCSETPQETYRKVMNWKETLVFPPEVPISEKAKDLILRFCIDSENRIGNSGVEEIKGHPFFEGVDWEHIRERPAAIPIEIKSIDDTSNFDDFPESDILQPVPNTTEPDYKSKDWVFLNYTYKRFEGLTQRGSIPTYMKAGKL

Myosin light chain kinase 2, skeletal/cardiac muscle (Homo sapiens), sequence (Q9H1R3 whole entry): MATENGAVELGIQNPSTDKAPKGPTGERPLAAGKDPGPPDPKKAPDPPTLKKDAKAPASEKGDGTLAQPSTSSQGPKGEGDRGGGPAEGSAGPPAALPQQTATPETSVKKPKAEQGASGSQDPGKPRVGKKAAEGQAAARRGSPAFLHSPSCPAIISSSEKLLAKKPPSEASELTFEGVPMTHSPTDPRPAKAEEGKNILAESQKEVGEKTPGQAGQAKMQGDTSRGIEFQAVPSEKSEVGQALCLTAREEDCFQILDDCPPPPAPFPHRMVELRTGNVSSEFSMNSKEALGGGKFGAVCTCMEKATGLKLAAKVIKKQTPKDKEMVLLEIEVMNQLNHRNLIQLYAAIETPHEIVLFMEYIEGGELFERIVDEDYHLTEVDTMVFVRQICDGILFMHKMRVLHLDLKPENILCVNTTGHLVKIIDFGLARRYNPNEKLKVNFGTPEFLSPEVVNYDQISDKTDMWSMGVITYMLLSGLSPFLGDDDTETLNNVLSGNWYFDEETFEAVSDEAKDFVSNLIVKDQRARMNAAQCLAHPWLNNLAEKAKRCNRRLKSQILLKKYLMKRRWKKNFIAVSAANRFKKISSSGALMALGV

COc1cc(N(C)c2ccnc3ccc(C(F)(F)F)cc23)cc(OC)c1OC
% binding [1]: 75%

Cc1cc(F)c(C(=O)Nc2cccc(-c3nncn3C(C)C)n2)cc1-n1cnc(C2CC2)c1
% of control [2]: 85%

Nc1cnc(N2CCc3cc(S(=O)(=O)Nc4c(F)cc(Cl)cc4F)cc(N4CCCC4=O)c32)nc1 [TP-020n]
% of control [3]: 95%

Cn1cc(-n2cnc3c(NCc4nc5cc(Cl)c(Cl)cc5[nH]4)nc(N4CCOCC4)nc32)cn1
% of inhibition [4]: -26.4%

CC(C)(O)[C@H](F)CN1Cc2cc(NC(=O)c3cnn4cccnc34)c(N3CCOCC3)cc2C1=O
dTM [5]: -0.2 K

Reference: ChEMBL document CHEMBL5465560, “Selectivity Literature for EUbOPEN Chemogenomic Library” (2024)
